In ChEMBL document CHEMBL1130700, “Antiinflammatory 4,5-diarylimidazoles as selective cyclooxygenase inhibitors” (1998):

Columns and labels:
Format in all cases: functional
Mus musculus [1] = assay: In vivo inhibitory activity by mouse air-pouch assay at dose 2 MPK was determined.
Mus musculus [2] = assay: In vivo inhibitory activity by mouse air-pouch assay at dose 2 mg/Kg was determined.
Rattus norvegicus = organism: Rattus norvegicus; assay: Effective dose was evaluated by rat adjuvant arthritis model.
Mus musculus [3] = organism: Mus musculus; assay: Effective dose was evaluated by mouse air-pouch assay.

Row | SMILES | inhibition in vivo at 2 mg/kg (Mus musculus [1]) [%] | other results
1 | CS(=O)(=O)c1ccc(-c2[nH]c(C(F)(F)F)nc2-c2cccc(Cl)c2)cc1 | 98 | –
2 | CS(=O)(=O)c1ccc(-c2[nH]c(C(F)(F)F)nc2NS(=O)(=O)c2ccc(F)cc2)cc1 | 33 | –
3 | CS(=O)(=O)c1ccc(-c2[nH]c(C(F)(F)F)nc2-c2ccsc2)cc1 | 0 | –
4 | CS(=O)(=O)c1ccc(-c2[nH]c(C(F)(F)F)nc2-c2ccc(F)cc2F)cc1 | 100 | –
5 | CS(=O)(=O)c1ccc(-c2[nH]c(C(F)(F)F)nc2-c2cccs2)cc1 | 79 | –
6 | Cc1cccc(-c2[nH]c(C(F)(F)F)nc2-c2ccc(S(C)(=O)=O)cc2)c1 | 29 | –
7 | CS(=O)(=O)c1ccc(-c2[nH]c(C(F)(F)F)nc2-c2ccccc2Cl)cc1 | 86 | –
8 | CS(=O)(=O)c1ccc(-c2[nH]c(C(F)(F)F)nc2-c2cccnc2)cc1 | 29 | –
9 | CS(=O)(=O)c1ccc(-c2[nH]c(C(F)(F)F)nc2-c2ccc(F)cc2)cc1 | 99 | –
10 | CS(=O)(=O)c1ccc(-c2[nH]c(C(F)(F)F)nc2-c2ccccc2)cc1 | – | inhibition in vivo at 2 mg/kg (Mus musculus [2]): 95%; ED50 (Rattus norvegicus): 0.16 mg/kg; ED50 (Mus musculus [3]): 0.38 mg/kg
11 | CS(=O)(=O)c1ccc(-c2[nH]c(C(F)(F)F)nc2-c2ccc(Cl)c(Cl)c2)cc1 | 84 | –
12 | CS(=O)(=O)c1ccc(-c2[nH]c(C(F)(F)F)nc2-c2ccc(F)c(F)c2)cc1 | 68 | –
13 | Cc1ccc(-c2[nH]c(C(F)(F)F)nc2-c2ccc(S(C)(=O)=O)cc2)cc1Cl | 0 | –
14 | Cc1c(F)cccc1-c1[nH]c(C(F)(F)F)nc1-c1ccc(S(C)(=O)=O)cc1 | 94 | –
15 | CS(=O)(=O)c1ccc(-c2[nH]c(C(F)(F)F)nc2-c2cccc(F)c2)cc1 | 92 | –
16 | CS(=O)(=O)c1ccc(-c2[nH]c(C(F)(F)F)nc2-c2ccc(Cl)cc2)cc1 | 86 | –
17 | Cc1ccc(-c2cc(C(F)(F)F)nn2-c2ccc(S(N)(=O)=O)cc2)cc1 [CELECOXIB] | – | ED50 (Rattus norvegicus): 0.37 mg/kg; ED50 (Mus musculus [1]): 0.33 mg/kg
